Structures can show the parent of a compound that is named as a salt.
What was measured:
NMRI mouse [1] = assay: Tail suspension test in the NMRI mouse; format: in vivo; conditions: 10 mg/kg IP 24 hours and 30 minutes before suspension, 6 minutes
Protocol: The tail suspension test in the mouse (Porsolt et al., Arch. Int. Pharmacodyn., 1987, 288, 11) enables detection of psychopharmacological properties of compounds. NMRI mice are suspended by the tail, with the aid of a piece of adhesive tape, from a hook for 6 minutes: the immobility time is measured automatically with the aid of movement sensors. The animals are treated, by the intraperitoneal route, with the compounds of the invention or their carriers 24 hours and 30 minutes before they are suspended.

[2] = target: T1, type H3 central histamine receptors (Mus musculus, UniProt P58406); assay: Cerebral levels of Nτ-methylhistamine in the NMRI mouse (ex vivo H3 antagonist activity); conditions: one hour after treatment, vs carrier
T1 construct: the brains are removed, frozen in liquid nitrogen, weighed and homogenised; from tissue; host or cells: brain of living NMRI mice (oral dosing)
Protocol: The purpose of this study, which was carried out in accordance with the method of Taylor et al. (Biochem. Pharm., 1992, 44, 1261-1267), is to evaluate the ex vivo activity of the compounds of the present invention as antagonists of type H3 central histamine receptors. […] An increase in the cerebral concentrations of N^τ-methylhistamine indicates an increase in the turn-over of histamine by blockage of the type H3 central histamine receptors.
NMRI mice (18-20 g) are treated with compounds of the present invention or with their carrier (20 ml/kg) by the oral route. One hour after the pharmacological treatment, the animals are sacrificed; the brains are removed, frozen in liquid nitrogen, weighed and homogenised in 0.1N HClO4 at 4° C. The homogenised products are centrifuged (15 000 g, 17 min, 4° C.). The supernatants are recovered and divided into aliquots. The aliquots are frozen in liquid nitrogen and stored at −80° C. until they are analysed.
Determination of the cerebral levels of N^τ-methylhistamine is carried out by capillary electrophoresis. The tissue levels of N^τ-methylhistamine are expressed in μg/g of fresh brain. The comparison of the cerebral levels of N^τ-methylhistamine between animals treated with the carrier (controls) and animals treated with compounds of the present invention is carried out by single-factor variance analysis followed, if necessary, by a complementary analysis (Dunnett's test).

Wistar rat [3] = assay: Electroencephalogram recordings in the awake Wistar rat; format: in vivo; conditions: 3 mg/kg IP
Protocol: Electrodes are chronically implanted in adult male Wistar rats, being located at the surface of the frontal and parietal cortex. Cortical electroencephalogram (EEG) recordings are made in the rats placed in cages in a sound-proofed room. The compounds and carriers are administered in randomised manner by the intraperitoneal route at 10 o'clock on the same days with a minimum of 3 days between each administration, allowing each rat to be used as its own control. The absolute power of the slow delta activities (1-4 Hz), which predominate during slow sleep and disappear during wakefulness and paradoxical sleep, is averaged over successive periods of 30 minutes. Over 30 minutes, high and low values for the power of the slow delta activities are signs of […], respectively.

Wistar rat [4] = assay: Interaction with barbital in the Wistar rat; format: in vivo; conditions: 30 mg/kg PO 30 minutes before barbital 170 mg/kg IP, sleep measured for 4 hours
Protocol: The objective of this test is to determine the anti-sedative, awakening and/or anti-hypnotic properties of the compounds of the present invention. The rats are placed in individual cages and are given an injection of barbital (170 mg/kg IP). The duration of sleep is then measured for 4 hours after the injection of barbital, determined on the basis of loss of the righting reflex. The compounds of the invention or their carriers are administered by the oral route 30 minutes before the administration of barbital.

NMRI mouse [5] = assay: Marble-burying test in the NMRI mouse; format: in vivo; conditions: 30 mg/kg IP 30 minutes before test, 30 minutes period
Protocol: The spontaneous marble-burying behaviour in the mouse is a very sensitive empirical test for antidepressant compounds (Sanchez and Meier, Psychopharmacology, 1997; 129: 197-205; Nicolas and Prinssen, Eur. J. Pharmacol., 2006, 547: 106-115). The mice are placed in individual cages in which there are 24 marbles and the number of marbles buried by each animal is determined for a period of 30 minutes. The animals are treated by the intraperitoneal route with the compounds of the present invention or their carriers 30 minutes before placing the animals in the cage containing marbles.

Sprague-Dawley rat = assay: Object recognition in the Sprague-Dawley rat; format: in vivo; conditions: 0.3 mg/kg PO, 60 minutes before each session, 24 hours between sessions
Excerpt: The object recognition test in the Sprague-Dawley rat (Behav. Brain Res., 1988, 31, 47-59) is based on the spontaneous exploratory activity of the animal and has the characteristics of episodic memory in humans. This memory test is sensitive to ageing (Eur. J. Pharmacol., 1997, 325, 173-180) and to cholinergic dysfunctions (Pharm. Biochem. Behav. 1996, 53(2), 277-283) and is based on the differences in the exploration of 2 objects of fairly similar shape—one familiar, the other new. Prior to the test, the animals are habituated to the environment (an enclosure without an object). In the course of a first session, the rats are placed (3 minutes) in the enclosure, in which there are 2 identical objects. The duration of exploration is measured for each object. In the course of the second session (3 minutes), 24 hours later, 1 of the 2 objects is replaced by a new object. The duration of exploration is measured for each object. The assessment criterion is the difference, Delta, expressed in seconds, between the exploration times for the new object and for the familiar object in the course of the second session.

Wistar rat [6] = assay: Social recognition in the Wistar rat; format: in vivo; conditions: second encounter after 2 hours
Excerpt: Initially described in 1982 (J. Comp. Physiol., 1982, 96, 1000-1006), the social recognition test has subsequently been proposed by various authors (Psychopharmacology, 1987, 91, 363-368; Psychopharmacology, 1989, 97, 262-268) for studying the mnemocognitive effects of new compounds. The test is based on the natural expression of the olfactory memory of the rat and its natural tendency to forget and allows evaluation of memorisation, by recognition of a young congeneric animal, by an adult rat. A young rat (21 days), taken at random, is placed for 5 minutes in the cage housing an adult rat. With the aid of a video device, the experimenter observes the social recognition behaviour of the adult rat and measures its overall duration. The young rat is then removed from the adult rat's cage and is placed in its own cage until the second introduction. The adult rat is given the compound under test by the intraperitoneal route and, after 2 hours, is again brought into the presence (5 minutes) of the young rat. The social recognition behaviour is then observed again and its duration measured. The assessment criterion is the difference (T2−T1), expressed in seconds, between the “recognition” times of the 2 encounters.

NMRI mouse [7] = assay: Forced swimming test in the NMRI mouse; format: in vivo; conditions: 30 mg/kg IP 30 minutes before test, final 4 minutes of 6
Protocol: The forced swimming test is very widely used for detecting the antidepressant properties of compounds (Porsolt et al., Arch. Int. Pharmacodyn., 1977, 229, 327-336). The animals are placed for 6 minutes in cylinders filled with water (14 cm) and the immobility time is measured for the final 4 minutes by a video-tracking system. The compounds of the present invention or their carriers are administered by the intraperitoneal route 30 minutes before the mice are placed in the cylinder.

T1 sequence (P58406 whole entry): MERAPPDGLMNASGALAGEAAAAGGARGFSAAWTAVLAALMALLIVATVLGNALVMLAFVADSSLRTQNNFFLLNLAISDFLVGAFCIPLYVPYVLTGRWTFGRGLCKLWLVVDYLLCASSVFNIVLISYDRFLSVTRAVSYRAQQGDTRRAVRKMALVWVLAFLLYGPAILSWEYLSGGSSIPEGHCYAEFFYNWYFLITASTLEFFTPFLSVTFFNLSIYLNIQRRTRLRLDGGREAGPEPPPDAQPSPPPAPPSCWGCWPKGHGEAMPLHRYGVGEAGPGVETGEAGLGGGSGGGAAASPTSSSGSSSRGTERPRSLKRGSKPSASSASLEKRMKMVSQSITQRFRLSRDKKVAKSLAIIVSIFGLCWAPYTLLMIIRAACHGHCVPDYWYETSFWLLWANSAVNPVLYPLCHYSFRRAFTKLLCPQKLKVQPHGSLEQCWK

| increase in endogenous cerebral concentrations of Nτ-methylhistamine ([2]; 10 mg/kg PO) | increase in endogenous cerebral concentrations of Nτ-methylhistamine ([2]; 30 mg/kg PO) | SMILES | reduction in the immobility time (NMRI mouse [1]) | reduction of the duration of sleeping caused by barbital (Wistar rat [4]) | decrease in the number of balls buried (NMRI mouse [5]) | reduction in immobility (NMRI mouse [7]) | other results |
| --- | --- | --- | --- | --- | --- | --- | --- |
| 135% | 303% | CC(=O)N(C)c1ccc(OCCCN2C[C@H]3C[C@H]3C2)cc1.Cl [Example 13, N-(4-{3-[(1R,5S)-3-Azabicyclo[3.1.0]hex-3-yl]propoxy}phenyl)-N-methylacetamide hydrochloride] | 53% | – | – | – | duration of the reduction in the power of the slow delta waves (Wistar rat [3]): 120 min; effect on power of the slow delta waves (1-4 Hz), cortical EEG (Wistar rat [3]): significant reduction |
| – | – | CN(C)C(=O)c1ccc(OCCCCN2C[C@H]3C[C@H]3C2)cc1.O=C(O)C(=O)O [Example 8, 4-{4-[(1R,5S)-3-Azabicyclo[3.1.0]hex-3-yl]butoxy}-N,N-dimethyl-benzamide oxalate] | – | −79% | – | – | – |
| – | – | NC(=O)c1ccc(OCCN2C[C@H]3C[C@H]3C2)cc1 [Example 2, 4-{2-[(1R,5S)-3-Azabicyclo[3.1.0]hex-3-yl]ethoxy}benzamide] | – | – | 99% | – | – |
| 124% | 266% | COCC(=O)Nc1ccc(OCCCN2C[C@H]3C[C@H]3C2)cc1 [Example 14, N-(4-{3-[(1R,5S)-3-Azabicyclo[3.1.0]hex-3-yl]propoxy}phenyl)-2-methoxyacetamide] | 36% | – | – | – | – |
| – | – | NC(=O)c1ccc(OCCCN2C[C@H]3C[C@H]3C2)cc1 [Example 1, 4-{3-[(1R,5S)-3-Azabicyclo[3.1.0]hex-3-yl]propoxy}-benzamide hydrochloride] | 59% | – | 48% | 76% | difference, Delta, between exploration times for the new object and the familiar object (second session) (Sprague-Dawley rat): ~6 s; difference (T2−T1) between the recognition times of the 2 encounters (Wistar rat [6]; 1 mg/kg IP): 21 s; difference (T2−T1) between the recognition times of the 2 encounters (Wistar rat [6]; 3 mg/kg IP): 26 s; duration of the reduction in the power of the slow delta waves (Wistar rat [3]): 120 min |
| – | – | CC(=O)Nc1ccc(OCCCN2C[C@H]3C[C@H]3C2)cc1 [Example 4, N-(4-{3-[(1R,5S)-3-Azabicyclo[3.1.0]hex-3-yl]propoxy}phenyl)acetamide] | 36% | – | – | – | – |
| – | – | COCC(=O)Nc1ccc(OCCN2C[C@H]3C[C@H]3C2)cc1 [Example 15, N-(4-{2-[(1R,5S)-3-Azabicyclo[3.1.0]hex-3-yl]ethoxy}phenyl)-2-methoxyacetamide] | 77% | −76% | 83% | 34% | – |
| – | – | CNC(=O)c1ccc(OCCCCN2C[C@H]3C[C@H]3C2)cc1 [Example 12, 4-{4-[(1R,5S)-3-Azabicyclo[3.1.0]hex-3-yl]butoxy}-N-methylbenzamide] | – | −55% | – | – | – |
| 109% | 200% | CC(=O)Nc1ccc(OCCN2C[C@H]3C[C@H]3C2)cc1 [Example 5, N-(4-{2-[(1R,5S)-3-Azabicyclo[3.1.0]hex-3-yl]ethoxy}phenyl)acetamide] | 64% | −80% | 49% | 32% | – |

| SMILES | increase in endogenous cerebral concentrations of Nτ-methylhistamine ([2]; 10 mg/kg PO) | increase in endogenous cerebral concentrations of Nτ-methylhistamine ([2]; 30 mg/kg PO) | reduction in the immobility time (NMRI mouse [1]) | reduction of the duration of sleeping caused by barbital (Wistar rat [4]) | decrease in the number of balls buried (NMRI mouse [5]) | reduction in immobility (NMRI mouse [7]) | other results |
| --- | --- | --- | --- | --- | --- | --- | --- |
| CC(=O)Nc1ccc(OCCCCN2C[C@H]3C[C@H]3C2)cc1 [Example 6, N-(4-{4-[(1R,5S)-3-Azabicyclo[3.1.0]hex-3-yl]butoxy}phenyl)acetamide] | 106% | 210% | – | – | – | – | – |

— patent publication US7906547B2, “Azabicylic compounds, a process for their preparation and pharmaceutical compositions containing them” (Les Laboratoires Servier, priority 2008, dated 2011)
